Laboratory results published in US20250230193A1, “CYCLIC COMPOUND HAVING SELECTIVE KRAS INHIBITORY EFFECT ON HRAS AND NRAS” (CHUGAI SEIYAKU KABUSHIKI KAISHA, priority 2022, published 2025).
Where a SMILES comes first, the peptide text is derived from it. Bridges are numbered along the chain shown (N, C = ends). [ ]: non-standard residue; d: D form. The star is where a group is joined. hPhe(3-Cl-4-CF3) = N[C@@H](CCc1ccc(C(F)(F)F)c(Cl)c1)C(=O)O; NPrPhe(4-CF3) = CCCN[C@@H](Cc1ccc(C(F)(F)F)cc1)C(=O)O; hPhe(3,4-Cl2) = N[C@@H](CCc1ccc(Cl)c(Cl)c1)C(=O)O; NMeGly(cPent) = CN[C@H](C(=O)O)C1CCCC1; Pro(4S-Me) = C[C@@H]1CN[C@H](C(=O)O)C1; Hyp = O=C(O)[C@@H]1C[C@@H](O)CN1; NMeD = CN[C@@H](CC(=O)O)C(=O)O; NMeL = CN[C@@H](CC(C)C)C(=O)O; Morpholide = C1CN(*)CCO1; NMeA = CN[C@@H](C)C(=O)O; Ac5c = NC1(C(=O)O)CCCC1; Aze = O=C(O)[C@@H]1CCN1; Sar = CNCC(=O)O

Tests used:
[1] = target: GDP-bound HRAS wild-type protein (Homo sapiens, UniProt P01112); assay: Binding to HRAS by surface plasmon resonance (SPR), Single Cycle Kinetics; conditions: SPR; for HRAS/KRAS (ratio of KD value with respect to HRAS to KD value with respect to KRAS) / HRAS/KRAS (ratio of KD value for HRAS to KD value for KRAS): GDP-bound HRAS wild-type vs GDP-bound KRAS wild-type
[2] = target: GDP-bound NRAS wild-type protein (Homo sapiens, UniProt P01111); assay: Binding to NRAS by surface plasmon resonance (SPR), Single Cycle Kinetics; conditions: SPR; for NRAS/KRAS (ratio of KD value with respect to NRAS to KD value with respect to KRAS) / NRAS/KRAS (ratio of KD value for NRAS to KD value for KRAS): GDP-bound NRAS wild-type vs GDP-bound KRAS wild-type
Sequence of GDP-bound NRAS wild-type protein (P01111 whole entry): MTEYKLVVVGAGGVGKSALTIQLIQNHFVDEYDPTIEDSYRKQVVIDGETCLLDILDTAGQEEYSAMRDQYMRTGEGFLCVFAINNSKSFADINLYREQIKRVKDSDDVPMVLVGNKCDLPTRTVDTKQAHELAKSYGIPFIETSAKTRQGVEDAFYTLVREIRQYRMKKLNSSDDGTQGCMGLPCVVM

Sequence of GDP-bound HRAS wild-type protein (P01112 whole entry): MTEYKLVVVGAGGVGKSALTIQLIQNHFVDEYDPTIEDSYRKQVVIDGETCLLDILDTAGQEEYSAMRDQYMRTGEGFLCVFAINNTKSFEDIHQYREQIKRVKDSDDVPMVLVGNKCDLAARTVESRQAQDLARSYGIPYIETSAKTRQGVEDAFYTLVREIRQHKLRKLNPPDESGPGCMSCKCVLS

CCCN1C(=O)CN(C)C(=O)CN(C)C(=O)[C@H]([C@@H](C)CC)NC(=O)[C@H](CC(C)C)N(C)C(=O)C[C@@H](C(=O)N2CCOCC2)N(C)C(=O)[C@H](C2CCCC2)N(C)C(=O)C2(CCCC2)NC(=O)[C@@H]2CCCN2C(=O)[C@H](CCc2ccc(Cl)c(Cl)c2)NC(=O)CN(C)C(=O)[C@@H]1Cc1ccc(C(F)(F)F)cc1 [PP0232] ([NMeL]I[Sar][Sar][NPrPhe(4-CF3)][Sar][hPhe(3,4-Cl2)]P[Ac5c][NMeGly(cPent)][NMeD]-Morpholide; lactam N-11)
HRAS/KRAS (ratio of KD for GDP-bound HRAS wild-type to KD for KRAS) [1]: B (a compound having 3 or more and less than 10 is denoted as B) | NRAS/KRAS (ratio of KD for GDP-bound NRAS wild-type to KD for KRAS) [2]: B (a compound having 3 or more and less than 10 is denoted as B)

CCCN1C(=O)CN(C)C(=O)CNC(=O)[C@H]([C@@H](C)CC)NC(=O)[C@H](CC(C)C)N(C)C(=O)C[C@@H](C(=O)N(C)C)N(C)C(=O)[C@H](C2CCCC2)N(C)C(=O)C2(CCCC2)NC(=O)[C@@H]2CCCN2C(=O)[C@H](CCc2ccc(C(F)(F)F)c(Cl)c2)NC(=O)CN(C)C(=O)[C@@H]1Cc1ccc(C(F)(F)F)cc1 [PP0417] ([NMeL]IG[Sar][NPrPhe(4-CF3)][Sar][hPhe(3-Cl-4-CF3)]P[Ac5c][NMeGly(cPent)][NMeD]-NMe2; lactam N-11)
HRAS/KRAS (ratio of KD value with respect to GDP-bound HRAS wild-type protein to KD value with respect to KRAS) [1]: C (A compound having a KD ratio of 0.1 or more and less than 3 is denoted as C) | NRAS/KRAS (ratio of KD value with respect to GDP-bound NRAS wild-type protein to KD value with respect to KRAS) [2]: B (a compound having 3 or more and less than 10 is denoted as B)

CC[C@H](C)[C@@H]1NC(=O)[C@@H]2CCCc3ccc(cc3)C[C@@H](C(=O)N(C)CC(=O)N[C@@H](CCc3ccc(C(F)(F)F)c(OC)c3)C(=O)N3CC4(CC4)C[C@H]3C(=O)NC3(CC(C)(C)C3)C(=O)N(C)[C@@H](C3CCCC3)C(=O)N(C)[C@H](C(=O)N(C)CC)CC(=O)N2C)N2CC/C=C\C[C@@H](C2=O)N(C)C(=O)CN(C)C1=O [PP3087]
HRAS/KRAS (ratio of KD value with respect to GDP-bound HRAS wild-type protein to KD value with respect to KRAS) ([1]; GDP-bound wild-type proteins): B (a compound having 3 or more and less than 10 is denoted as B) | NRAS/KRAS (ratio of KD value with respect to GDP-bound NRAS wild-type protein to KD value with respect to KRAS) ([2]; GDP-bound wild-type proteins): A (a compound having 10 or more and less than 20 is denoted as A)

CC[C@H](C)[C@@H]1NC(=O)[C@H](CC(C)C)N(C)C(=O)C[C@@H](C(=O)N2CCOCC2)N(C)C(=O)[C@H](C2CCCC2)N(C)C(=O)C2(CCC2)NC(=O)[C@@H]2C[C@@H](OCC3CC3)CN2C(=O)[C@H](CCc2cc(F)c(C(F)(F)F)c(F)c2)NC(=O)CN(C)C(=O)[C@H](Cc2ccc(C(F)(F)F)cc2)N2CCCCC[C@@H](C2=O)N(C)C(=O)CN(C)C1=O [PP1005]
HRAS/KRAS (ratio of KD value with respect to HRAS to KD value with respect to KRAS) ([1]; KD ratio): A (a compound having 10 or more and less than 20 is denoted as A) | NRAS/KRAS (ratio of KD value with respect to NRAS to KD value with respect to KRAS) ([2]; KD ratio): A (a compound having 10 or more and less than 20 is denoted as A)

CC[C@H](C)[C@@H]1NC(=O)[C@H](C2CCC2)N(C)C(=O)C[C@@H](C(=O)N(C)CC)N(C)C(=O)[C@H](C2CCCC2)N(C)C(=O)C2(CCC2)NC(=O)[C@@H]2C[C@H](C)CN2C(=O)[C@H](CCc2ccc(C(F)(F)F)c(OC)c2)NC(=O)CN(C)C(=O)[C@H](Cc2ccc(C(F)(F)F)cc2)N2CC/C=C\C[C@@H](C2=O)N(C)C(=O)CN(C)C1=O [PP2071]
HRAS/KRAS (ratio of KD value with respect to HRAS to KD value with respect to KRAS) [1]: A (a compound having 10 or more and less than 20 is denoted as A) | NRAS/KRAS (ratio of KD value with respect to NRAS to KD value with respect to KRAS) [2]: A (a compound having 10 or more and less than 20 is denoted as A)

CCO[C@@H]1C[C@H]2C(=O)NC3(CC(C)(C)C3)C(=O)N(C)[C@@H](C(CC)CC)C(=O)N(C)[C@H](C(=O)N(C)C)CC(=O)N(C)[C@@H](C(C)C)C(=O)N[C@@H]([C@@H](C)CC)C(=O)N(C)CC(=O)N(C)[C@H]3C/C=C\CCN(C3=O)[C@@H](CC3CCC(F)(F)CC3)C(=O)N(C)CC(=O)N[C@@H](CCc3ccc(C(F)(F)F)c(Cl)c3)C(=O)N2C1 [PP2492]
HRAS/KRAS (ratio of KD value with respect to HRAS to KD value with respect to KRAS) [1]: A (a compound having 10 or more and less than 20 is denoted as A) | NRAS/KRAS (ratio of KD value with respect to NRAS to KD value with respect to KRAS) [2]: AA (a compound having 20 or more is denoted as AA)

CCCN1C(=O)CN(C)C(=O)CN(C)C(=O)[C@H]([C@@H](C)CC)NC(=O)[C@H](CC(C)C)N(C)C(=O)C[C@@H](C(=O)N2CCOCC2)N(C)C(=O)[C@H](C2CCCC2)N(C)C(=O)C2(CCCC2)NC(=O)[C@@H]2C[C@H](C)CN2C(=O)[C@H](CCc2ccc(C(F)(F)F)c(Cl)c2)NC(=O)CN(C)C(=O)[C@@H]1Cc1ccc(C(F)(F)F)cc1 [PP0447] ([NMeL]I[Sar][Sar][NPrPhe(4-CF3)][Sar][hPhe(3-Cl-4-CF3)][Pro(4S-Me)][Ac5c][NMeGly(cPent)][NMeD]-Morpholide; lactam N-11)
HRAS/KRAS (ratio of KD value with respect to GDP-bound HRAS wild-type protein to KD value with respect to KRAS) [1]: C (A compound having a KD ratio of 0.1 or more and less than 3 is denoted as C) | NRAS/KRAS (ratio of KD value with respect to GDP-bound NRAS wild-type protein to KD value with respect to KRAS) [2]: B (a compound having 3 or more and less than 10 is denoted as B)

C#CC[C@H]1C(=O)N[C@@H]([C@@H](C)CC)C(=O)N(C)CC(=O)N(C)[C@H]2C/C=C\CCN(C2=O)[C@@H](Cc2ccc(C(F)(F)F)cc2)C(=O)N(C)CC(=O)N[C@@H](CCc2cc(F)c(C(F)(F)F)c(F)c2)C(=O)N2C[C@H](OCC)C[C@H]2C(=O)NC2(CCC2)C(=O)N(C)[C@@H](C2CCCC2)C(=O)N(C)[C@H](C(=O)N(C)CCC)CC(=O)N1C [PP1703]
HRAS/KRAS (ratio of KD value for HRAS to KD value for KRAS) ([1]; KD ratio): A (a compound having 10 or more and less than 20 is denoted as A) | NRAS/KRAS (ratio of KD value for NRAS to KD value for KRAS) ([2]; KD ratio): A (a compound having 10 or more and less than 20 is denoted as A)

CCO[C@@H]1C[C@H]2C(=O)NC3(CC=CC3)C(=O)N(C)[C@@H](C3CCCC3)C(=O)N(C)[C@H](C(=O)N3CCOCC3)CC(=O)N(C)[C@@H](COC)C(=O)N[C@@H]([C@@H](C)CC)C(=O)N(C)CC(=O)N(C)[C@H]3CCCCCN(C3=O)[C@@H](Cc3ccc(C(F)(F)F)cc3)C(=O)N(C)CC(=O)N[C@@H](CCc3cc(F)c(C(F)(F)F)c(F)c3)C(=O)N2C1 [PP0842]
HRAS/KRAS (ratio of KD value with respect to HRAS to KD value with respect to KRAS) ([1]; KD ratio): B (a compound having 3 or more and less than 10 is denoted as B) | NRAS/KRAS (ratio of KD value with respect to NRAS to KD value with respect to KRAS) ([2]; KD ratio): B (a compound having 3 or more and less than 10 is denoted as B)

CCCN1C(=O)[C@@H]2CCN2C(=O)[C@H](C)N(C)C(=O)[C@H]([C@@H](C)CC)NC(=O)[C@H](CC(C)C)N(C)C(=O)C[C@@H](C(=O)N2CCOCC2)N(C)C(=O)[C@H](C2CCCC2)N(C)C(=O)C2(CCCC2)NC(=O)[C@@H]2C[C@@H](OCC)CN2C(=O)[C@H](CCc2ccc(C(F)(F)F)c(Cl)c2)NC(=O)CN(C)C(=O)[C@@H]1Cc1ccc(C(F)(F)F)cc1 [PP0228] ([NMeL]I[NMeA][Aze][NPrPhe(4-CF3)][Sar][hPhe(3-Cl-4-CF3)][Hyp](Et)[Ac5c][NMeGly(cPent)][NMeD]-Morpholide; lactam N-11)
HRAS/KRAS (ratio of KD for GDP-bound HRAS wild-type to KD for KRAS) [1]: B (a compound having 3 or more and less than 10 is denoted as B) | NRAS/KRAS (ratio of KD for GDP-bound NRAS wild-type to KD for KRAS) [2]: C (A compound having a KD ratio of 0.1 or more and less than 3 is denoted as C)

CCC[C@H]1C(=O)N[C@@H]([C@@H](C)CC)C(=O)N2CCC[C@H]2C(=O)N(C)[C@H]2C/C=C\CCN(C2=O)[C@@H](Cc2ccc(C)cc2)C(=O)N(C)CC(=O)N[C@@H](CCc2cc(F)c(C(F)(F)F)c(F)c2)C(=O)N2C[C@H](OCC)C[C@H]2C(=O)N(C)C2(CCC2)C(=O)N(C)[C@@H](C2CCCC2)C(=O)N(C)[C@H](C(=O)N2CCCCC2)CC(=O)N1C [PP3115, (1S,4S,10S,13S,17S,20S,26S,28R,32S,38S,42Z)-20-cyclopentyl-32-[2-[3,5-difluoro-4-(trifluoromethyl)phenyl]ethyl]-28-ethoxy-2,14,18,21,24,36-hexamethyl-10-[(1S)-1-methylpropyl]-17-(piperidine-1-carbonyl)-13-propyl-38-(p-tolylmethyl)spiro[2,8,11,14,18,21,24,30,33,36,39-undecazatetracyclo[37.5.1.0^4,8.0^26,30]pentatetracont-42-ene-23,1′-cyclobutane]-3,9,12,15,19,22,25,31,34,37,45-undecone]
HRAS/KRAS (ratio of KD value with respect to GDP-bound HRAS wild-type protein to KD value with respect to KRAS) ([1]; GDP-bound wild-type proteins): B (a compound having 3 or more and less than 10 is denoted as B) | NRAS/KRAS (ratio of KD value with respect to GDP-bound NRAS wild-type protein to KD value with respect to KRAS) ([2]; GDP-bound wild-type proteins): A (a compound having 10 or more and less than 20 is denoted as A)

CC[C@H](C)[C@@H]1NC(=O)[C@H](COC)N(C)C(=O)C[C@@H](C(=O)N(CC)CC)N(C)C(=O)[C@H](C2CCCC2)N(C)C(=O)C2(CC(C)(C)C2)NC(=O)[C@@H]2C[C@H](C)CN2C(=O)[C@H](CCc2ccc(C(F)(F)F)c(Cl)c2)NC(=O)CN(C)C(=O)[C@H](Cc2ccc(C)cc2)N2CC/C=C\C[C@@H](C2=O)N(C)C(=O)CN(C)C1=O [PP2399]
HRAS/KRAS (ratio of KD value with respect to HRAS to KD value with respect to KRAS) [1]: A (a compound having 10 or more and less than 20 is denoted as A) | NRAS/KRAS (ratio of KD value with respect to NRAS to KD value with respect to KRAS) [2]: AA (a compound having 20 or more is denoted as AA)

CCO[C@@H]1C[C@H]2C(=O)NC3(CCC3)C(=O)N(C)[C@@H](C3CCCC3)C(=O)N(C)[C@H](C(=O)N(C)CC)CC(=O)N(C)[C@@H](CC(C)C)C(=O)N[C@@H]([C@@H](C)CC)C(=O)N(C)CC(=O)N(C)[C@H]3C/C=C\CCN(C3=O)[C@@H](Cc3ccc(C)cc3)C(=O)N(C)CC(=O)N[C@@H](CCc3ccc(C(F)(F)F)c(OC)c3)C(=O)N2C1 [PP1910]
HRAS/KRAS (ratio of KD value for HRAS to KD value for KRAS) ([1]; KD ratio): B (a compound having 3 or more and less than 10 is denoted as B) | NRAS/KRAS (ratio of KD value for NRAS to KD value for KRAS) ([2]; KD ratio): A (a compound having 10 or more and less than 20 is denoted as A)
